How the values were obtained:
JNK2α2(h) = JNK2α2(h) (Homo sapiens, UniProt P45984); test: Upstate kinase activity inhibition assay JNK2α2(h)
Pim-1(h) = Pim-1(h) (Homo sapiens, UniProt P11309); test: Upstate kinase activity inhibition assay Pim-1(h); format: biochemical; settings: 40 min; read-out: percentage of enzyme activity that remains
EphB3(h) = EphB3(h) (Homo sapiens, UniProt P54753); test: Upstate kinase activity inhibition assay EphB3(h); settings: 40 min, read-out: percentage of enzyme activity that remains
Axl(h) = biological target: T1, Axl(h) (Homo sapiens, UniProt P30530); test: Upstate kinase activity inhibition assay Axl(h); format: biochemical; settings: 40 min; read-out: percentage of enzyme activity that remains
T1 construct: purchased Upstate (KinaseProfiler service)
T1 sequence (P30530 26-894): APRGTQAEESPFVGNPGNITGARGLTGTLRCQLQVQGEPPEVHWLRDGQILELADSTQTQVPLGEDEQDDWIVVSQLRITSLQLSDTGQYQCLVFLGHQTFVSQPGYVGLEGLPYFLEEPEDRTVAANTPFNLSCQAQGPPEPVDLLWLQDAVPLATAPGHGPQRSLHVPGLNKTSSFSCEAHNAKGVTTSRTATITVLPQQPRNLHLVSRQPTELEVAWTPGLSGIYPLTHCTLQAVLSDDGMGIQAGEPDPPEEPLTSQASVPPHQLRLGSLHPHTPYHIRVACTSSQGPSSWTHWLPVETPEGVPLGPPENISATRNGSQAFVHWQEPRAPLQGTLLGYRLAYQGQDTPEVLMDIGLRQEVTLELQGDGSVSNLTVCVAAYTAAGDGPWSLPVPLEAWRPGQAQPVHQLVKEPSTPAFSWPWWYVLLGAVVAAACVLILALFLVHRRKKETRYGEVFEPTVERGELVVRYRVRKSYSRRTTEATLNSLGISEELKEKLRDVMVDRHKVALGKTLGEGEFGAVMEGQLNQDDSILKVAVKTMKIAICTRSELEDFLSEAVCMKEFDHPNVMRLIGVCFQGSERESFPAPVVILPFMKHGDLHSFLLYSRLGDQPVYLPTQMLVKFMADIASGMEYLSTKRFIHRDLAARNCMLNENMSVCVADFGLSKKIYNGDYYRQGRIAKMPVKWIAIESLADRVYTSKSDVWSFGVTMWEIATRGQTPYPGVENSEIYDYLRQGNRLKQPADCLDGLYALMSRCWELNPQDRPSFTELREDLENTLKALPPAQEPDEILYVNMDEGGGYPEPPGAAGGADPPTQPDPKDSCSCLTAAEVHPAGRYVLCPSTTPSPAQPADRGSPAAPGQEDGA

PKCζ(h) = PKCζ(h) (Homo sapiens, UniProt Q05513); test: Upstate kinase activity inhibition assay PKCζ(h); settings: 40 min, read-out: percentage of enzyme activity that remains
MELK(h) = MELK(h) (Homo sapiens, UniProt Q14680); test: Upstate kinase activity inhibition assay MELK(h); settings: 40 min, read-out: percentage of enzyme activity that remains
cSRC(h) = cSRC(h) (Homo sapiens, UniProt P12931); test: Upstate kinase activity inhibition assay cSRC(h); format: biochemical; settings: 40 min; read-out: percentage of enzyme activity that remains
MLK1(h) = MLK1(h) (Homo sapiens, UniProt P80192); test: Upstate kinase activity inhibition assay MLK1(h); settings: 40 min, read-out: percentage of enzyme activity that remains
Sequence of MLK1(h) (P80192 whole entry): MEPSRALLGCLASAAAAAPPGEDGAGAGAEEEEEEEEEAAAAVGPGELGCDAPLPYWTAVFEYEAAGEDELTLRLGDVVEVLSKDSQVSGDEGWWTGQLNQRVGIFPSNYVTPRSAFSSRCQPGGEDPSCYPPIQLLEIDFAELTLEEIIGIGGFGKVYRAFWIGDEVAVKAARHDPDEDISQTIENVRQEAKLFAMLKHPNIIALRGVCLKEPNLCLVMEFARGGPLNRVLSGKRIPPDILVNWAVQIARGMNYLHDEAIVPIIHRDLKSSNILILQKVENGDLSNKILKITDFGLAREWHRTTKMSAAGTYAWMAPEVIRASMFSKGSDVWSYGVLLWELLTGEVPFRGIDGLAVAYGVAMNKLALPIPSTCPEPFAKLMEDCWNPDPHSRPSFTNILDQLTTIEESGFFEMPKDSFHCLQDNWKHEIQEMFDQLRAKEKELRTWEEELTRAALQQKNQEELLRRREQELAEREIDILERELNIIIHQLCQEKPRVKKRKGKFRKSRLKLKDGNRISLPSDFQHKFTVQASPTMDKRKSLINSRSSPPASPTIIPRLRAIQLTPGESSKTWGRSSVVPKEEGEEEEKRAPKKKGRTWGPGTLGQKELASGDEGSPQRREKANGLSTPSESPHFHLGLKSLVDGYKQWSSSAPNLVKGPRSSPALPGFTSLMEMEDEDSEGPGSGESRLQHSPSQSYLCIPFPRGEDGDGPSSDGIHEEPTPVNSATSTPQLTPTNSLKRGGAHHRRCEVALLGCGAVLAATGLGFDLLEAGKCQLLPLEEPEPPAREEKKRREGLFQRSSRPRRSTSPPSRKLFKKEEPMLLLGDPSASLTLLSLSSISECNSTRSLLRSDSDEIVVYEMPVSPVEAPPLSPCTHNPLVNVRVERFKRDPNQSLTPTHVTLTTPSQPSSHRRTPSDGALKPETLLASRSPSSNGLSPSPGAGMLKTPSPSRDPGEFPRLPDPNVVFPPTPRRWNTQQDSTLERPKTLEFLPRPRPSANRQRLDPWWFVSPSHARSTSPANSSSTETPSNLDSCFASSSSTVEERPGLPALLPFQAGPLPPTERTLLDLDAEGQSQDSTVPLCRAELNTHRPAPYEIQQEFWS

PKCθ(h) = PKCθ(h) (Homo sapiens, UniProt Q04759); test: Upstate kinase activity inhibition assay PKCθ(h); settings: 40 min, read-out: percentage of enzyme activity that remains
SGK(h) = biological target: T2, SGK(h) (Homo sapiens, UniProt O00141, S422D); test: Upstate kinase activity inhibition assay SGK(h); format: biochemical; settings: 40 min; read-out: percentage of enzyme activity that remains
T2 construct: purchased Upstate (KinaseProfiler service)

PKA(h) = PKA(h) (Homo sapiens, UniProt P17612); test: Upstate kinase activity inhibition assay PKA(h); format: biochemical; settings: 40 min; read-out: percentage of enzyme activity that remains
PKBβ(h) = PKBβ(h) (Homo sapiens, UniProt P31751); test: Upstate kinase activity inhibition assay PKBβ(h); settings: 40 min, read-out: percentage of enzyme activity that remains
Rse(h) = biological target: T3, Rse(h) (Homo sapiens, UniProt Q06418); test: Upstate kinase activity inhibition assay Rse(h); format: biochemical; settings: 40 min; read-out: percentage of enzyme activity that remains
T3 construct: purchased Upstate (KinaseProfiler service)
T3 sequence (Q06418 41-890): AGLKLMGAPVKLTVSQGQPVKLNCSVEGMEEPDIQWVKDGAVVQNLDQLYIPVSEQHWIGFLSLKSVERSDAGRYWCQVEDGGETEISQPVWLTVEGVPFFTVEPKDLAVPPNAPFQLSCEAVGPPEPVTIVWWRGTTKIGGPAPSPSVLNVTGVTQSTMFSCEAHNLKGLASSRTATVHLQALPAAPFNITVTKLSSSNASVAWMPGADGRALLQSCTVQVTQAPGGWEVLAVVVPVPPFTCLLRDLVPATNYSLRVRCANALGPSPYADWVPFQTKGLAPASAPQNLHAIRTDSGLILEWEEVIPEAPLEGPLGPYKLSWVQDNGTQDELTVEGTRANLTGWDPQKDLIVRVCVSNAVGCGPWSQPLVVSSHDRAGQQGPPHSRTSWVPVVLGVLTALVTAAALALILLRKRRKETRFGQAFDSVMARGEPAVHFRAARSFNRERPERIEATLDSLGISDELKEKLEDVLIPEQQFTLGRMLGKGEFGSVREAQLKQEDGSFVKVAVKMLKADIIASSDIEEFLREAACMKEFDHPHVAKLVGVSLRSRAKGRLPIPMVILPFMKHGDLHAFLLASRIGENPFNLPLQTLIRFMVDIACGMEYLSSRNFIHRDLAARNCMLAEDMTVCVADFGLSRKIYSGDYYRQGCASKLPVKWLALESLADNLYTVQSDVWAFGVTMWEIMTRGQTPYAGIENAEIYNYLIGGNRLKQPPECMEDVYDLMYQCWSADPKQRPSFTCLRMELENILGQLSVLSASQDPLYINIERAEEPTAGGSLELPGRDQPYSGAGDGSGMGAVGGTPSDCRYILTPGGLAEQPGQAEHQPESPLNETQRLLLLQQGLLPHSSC

CK2(h) = CK2(h) (Homo sapiens, UniProt P68400); test: Upstate kinase activity inhibition assay CK2(h); settings: 40 min, read-out: percentage of enzyme activity that remains
Flt4(h) = Flt4(h) (Homo sapiens, UniProt P35916); test: Upstate kinase activity inhibition assay Flt4(h); settings: 40 min, read-out: percentage of enzyme activity that remains
SIK(h) = SIK(h) (Homo sapiens, UniProt P57059); test: Upstate kinase activity inhibition assay SIK(h)
NEK6(h) = biological target: T4, NEK6(h) (Homo sapiens, UniProt Q9HC98); test: Upstate kinase activity inhibition assay NEK6(h); format: biochemical; settings: 40 min; read-out: percentage of enzyme activity that remains
T4 construct: purchased Upstate (KinaseProfiler service)

Plk3(h) = Plk3(h) (Homo sapiens, UniProt Q9H4B4); test: Upstate kinase activity inhibition assay Plk3(h); settings: 40 min, read-out: percentage of enzyme activity that remains
MAPK1(h) = MAPK1(h) (Homo sapiens, UniProt P27361); test: Upstate kinase activity inhibition assay MAPK1(h); settings: 40 min, read-out: percentage of enzyme activity that remains
Yes(h) = Yes(h) (Homo sapiens, UniProt P07947); test: Upstate kinase activity inhibition assay Yes(h); settings: 40 min, read-out: percentage of enzyme activity that remains
EphA7(h) = biological target: T5, EphA7(h) (Homo sapiens, UniProt Q15375); test: Upstate kinase activity inhibition assay EphA7(h); format: biochemical; settings: 40 min; read-out: percentage of enzyme activity that remains
T5 construct: purchased Upstate (KinaseProfiler service)

EphA1(h) = EphA1(h) (Homo sapiens, UniProt P21709); test: Upstate kinase activity inhibition assay EphA1(h); settings: 40 min, read-out: percentage of enzyme activity that remains
MEK1(h) = MEK1(h) (Homo sapiens, UniProt Q02750); test: Upstate kinase activity inhibition assay MEK1(h); settings: 40 min, read-out: percentage of enzyme activity that remains
CSK(h) = biological target: T6, CSK(h) (Homo sapiens, UniProt P41240); test: Upstate kinase activity inhibition assay CSK(h); format: biochemical
T6 construct: purchased Upstate (KinaseProfiler service)

Syk(h) = Syk(h) (Homo sapiens, UniProt P43405); test: Upstate kinase activity inhibition assay Syk(h)
PDGFRβ(h) = biological target: T7, PDGFRβ(h) (Homo sapiens, UniProt P09619); test: Upstate kinase activity inhibition assay PDGFRβ(h); format: biochemical; settings: 40 min; read-out: percentage of enzyme activity that remains
T7 construct: purchased Upstate (KinaseProfiler service)

PAK5(h) = PAK5(h) (Homo sapiens, UniProt Q9P286); test: Upstate kinase activity inhibition assay PAK5(h); settings: 40 min, read-out: percentage of enzyme activity that remains
HIPK3(h) = HIPK3(h) (Homo sapiens, UniProt Q9H422); test: Upstate kinase activity inhibition assay HIPK3(h); settings: 40 min, read-out: percentage of enzyme activity that remains
Sequence of HIPK3(h) (Q9H422 whole entry): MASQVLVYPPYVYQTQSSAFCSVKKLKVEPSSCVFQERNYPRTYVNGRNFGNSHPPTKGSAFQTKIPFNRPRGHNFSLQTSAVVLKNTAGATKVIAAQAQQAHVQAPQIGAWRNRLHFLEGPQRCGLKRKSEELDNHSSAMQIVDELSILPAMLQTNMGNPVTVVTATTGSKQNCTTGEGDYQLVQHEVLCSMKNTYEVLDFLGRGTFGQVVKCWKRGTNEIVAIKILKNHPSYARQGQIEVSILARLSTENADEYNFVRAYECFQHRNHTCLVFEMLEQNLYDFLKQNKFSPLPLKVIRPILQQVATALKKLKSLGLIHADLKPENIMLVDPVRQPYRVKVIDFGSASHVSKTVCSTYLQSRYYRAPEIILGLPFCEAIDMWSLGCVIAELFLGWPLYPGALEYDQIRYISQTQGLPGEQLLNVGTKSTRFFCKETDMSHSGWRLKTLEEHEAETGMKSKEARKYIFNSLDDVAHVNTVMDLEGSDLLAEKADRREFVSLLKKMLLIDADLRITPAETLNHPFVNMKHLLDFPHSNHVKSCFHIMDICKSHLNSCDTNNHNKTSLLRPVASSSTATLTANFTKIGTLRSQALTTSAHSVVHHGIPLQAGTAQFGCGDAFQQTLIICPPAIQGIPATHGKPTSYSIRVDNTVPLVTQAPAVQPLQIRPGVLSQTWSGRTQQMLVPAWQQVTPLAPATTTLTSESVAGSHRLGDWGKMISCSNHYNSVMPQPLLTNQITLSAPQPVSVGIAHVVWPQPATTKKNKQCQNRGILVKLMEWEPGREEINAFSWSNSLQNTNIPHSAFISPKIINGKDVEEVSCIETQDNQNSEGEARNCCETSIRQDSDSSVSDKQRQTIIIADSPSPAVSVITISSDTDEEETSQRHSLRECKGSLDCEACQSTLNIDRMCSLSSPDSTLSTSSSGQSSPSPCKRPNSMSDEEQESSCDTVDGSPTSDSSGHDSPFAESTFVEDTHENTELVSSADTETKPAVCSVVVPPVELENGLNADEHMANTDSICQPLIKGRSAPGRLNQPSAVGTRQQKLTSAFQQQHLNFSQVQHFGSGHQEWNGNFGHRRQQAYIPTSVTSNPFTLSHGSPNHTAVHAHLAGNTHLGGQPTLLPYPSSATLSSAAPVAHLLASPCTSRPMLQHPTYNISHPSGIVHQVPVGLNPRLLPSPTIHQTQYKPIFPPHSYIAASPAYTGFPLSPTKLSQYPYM

EphA5(h) = biological target: T8, EphA5(h) (Homo sapiens, UniProt P54756); test: Upstate kinase activity inhibition assay EphA5(h); format: biochemical; settings: 4 μM Compound E
T8 construct: purchased Upstate (KinaseProfiler service)

PAK4(h) = PAK4(h) (Homo sapiens, UniProt O96013); test: Upstate kinase activity inhibition assay PAK4(h); settings: 40 min, read-out: percentage of enzyme activity that remains

Sequence of JNK2α2(h) (P45984 whole entry): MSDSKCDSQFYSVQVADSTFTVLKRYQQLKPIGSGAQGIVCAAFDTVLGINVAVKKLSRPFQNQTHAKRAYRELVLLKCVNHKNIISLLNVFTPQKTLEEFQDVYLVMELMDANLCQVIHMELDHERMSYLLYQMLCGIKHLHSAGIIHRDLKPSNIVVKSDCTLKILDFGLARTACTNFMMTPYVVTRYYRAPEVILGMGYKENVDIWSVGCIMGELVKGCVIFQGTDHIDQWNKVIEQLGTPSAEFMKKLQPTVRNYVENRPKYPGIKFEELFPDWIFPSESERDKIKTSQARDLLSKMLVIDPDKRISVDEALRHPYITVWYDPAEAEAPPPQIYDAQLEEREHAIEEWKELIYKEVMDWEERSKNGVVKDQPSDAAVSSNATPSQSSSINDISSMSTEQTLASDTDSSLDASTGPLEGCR
Sequence of Pim-1(h) (P11309 whole entry): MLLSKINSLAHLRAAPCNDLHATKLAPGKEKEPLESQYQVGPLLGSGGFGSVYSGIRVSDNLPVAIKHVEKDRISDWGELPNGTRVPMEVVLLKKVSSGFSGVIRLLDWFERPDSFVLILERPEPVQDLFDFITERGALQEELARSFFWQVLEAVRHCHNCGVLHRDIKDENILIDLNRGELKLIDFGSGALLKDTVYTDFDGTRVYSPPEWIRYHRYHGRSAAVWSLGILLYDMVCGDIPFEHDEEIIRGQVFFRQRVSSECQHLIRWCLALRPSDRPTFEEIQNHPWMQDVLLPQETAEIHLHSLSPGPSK

`Cc1cc(Nc2cc(N3CCN(C)CC3)nc(Sc3ccc(NC(=O)C4CC4)cc3)n2)n[nH]1` [Compound E, Cyclopropane carboxylic acid {4-[4-(4-methyl-piperazin-1-yl)-6-(5-methyl-2H-pyrazol-3-ylamino)-pyrimidin-2-ylsulphanyl]-phenyl}-amide] was tested, and the “percentage of enzyme activity that remains” value (JNK2α2(h); 0.2 μM Compound E) was 107%, the “percentage of enzyme activity that remains” value (JNK2α2(h); 4 μM Compound E) was 105% and the remaining activity at 0.2 µM (Pim-1(h)) was 102%. For the same compound, the remaining activity at 4 µM (Pim-1(h)) was 103%, the remaining activity at 0.2 µM (EphB3(h)) was 99% and the remaining activity at 4 µM (EphB3(h)) was 89%. It also gave a remaining activity at 0.2 µM (Axl(h)) of 79%, a remaining activity at 4 µM (Axl(h)) of 19% and a remaining activity at 0.2 µM (PKCζ(h)) of 107%. For the same compound, the remaining activity at 4 µM (PKCζ(h)) was 97%, the remaining activity at 0.2 µM (MELK(h)) was 56% and the remaining activity at 4 µM (MELK(h)) was 13%. For the same compound, the remaining activity at 0.2 µM (cSRC(h)) was 87%, the remaining activity at 4 µM (cSRC(h)) was 25% and the remaining activity at 0.2 µM (MLK1(h)) was 54%. It also gave a remaining activity at 4 µM (MLK1(h)) of 9%, a remaining activity at 0.2 µM (PKCθ(h)) of 25% and a remaining activity at 4 µM (PKCθ(h)) of 35%. The remaining activity at 0.2 µM (SGK(h)) was 113%, the remaining activity at 4 µM (SGK(h)) was 109% and the remaining activity at 0.2 µM (PKA(h)) was 100%. It also gave a remaining activity at 4 µM (PKA(h)) of 102%, a remaining activity at 0.2 µM (PKBβ(h)) of 105% and a remaining activity at 4 µM (PKBβ(h)) of 85%. The remaining activity at 0.2 µM (Rse(h)) was 94%, the remaining activity at 4 µM (Rse(h)) was 77% and the remaining activity at 0.2 µM (CK2(h)) was 100%. For the same compound, the remaining activity at 4 µM (CK2(h)) was 93%, the remaining activity at 4 µM (Flt4(h)) was 10% and the “percentage of enzyme activity that remains” value (SIK(h); 0.2 μM Compound E) was 95%. For the same compound, the “percentage of enzyme activity that remains” value (SIK(h); 4 μM Compound E) was 61%, the remaining activity at 0.2 µM (NEK6(h)) was 86% and the remaining activity at 4 µM (NEK6(h)) was 85%. For the same compound, the remaining activity at 0.2 µM (Plk3(h)) was 107%, the remaining activity at 4 µM (Plk3(h)) was 105% and the remaining activity at 0.2 µM (MAPK1(h)) was 94%. For the same compound, the remaining activity at 4 µM (MAPK1(h)) was 93%, the remaining activity at 0.2 µM (Yes(h)) was 39% and the remaining activity at 4 µM (Yes(h)) was 2%. For the same compound, the remaining activity at 4 µM (EphA7(h)) was 78%, the remaining activity at 0.2 µM (EphA1(h)) was 93% and the remaining activity at 4 µM (EphA1(h)) was 27%. For the same compound, the remaining activity at 0.2 µM (MEK1(h)) was 115%, the remaining activity at 4 µM (MEK1(h)) was 82% and the “percentage of enzyme activity that remains” value (CSK(h); 0.2 μM Compound E) was 108%. The “percentage of enzyme activity that remains” value (CSK(h); 4 μM Compound E) was 87%, the “percentage of enzyme activity that remains” value (Syk(h); 0.2 μM Compound E) was 113% and the “percentage of enzyme activity that remains” value (Syk(h); 4 μM Compound E) was 63%. For the same compound, the remaining activity at 0.2 µM (PDGFRβ(h)) was 102%, the remaining activity at 4 µM (PDGFRβ(h)) was 90% and the remaining activity at 0.2 µM (PAK5(h)) was 93%. The remaining activity at 4 µM (PAK5(h)) was 68%, the remaining activity at 0.2 µM (HIPK3(h)) was 112% and the remaining activity at 4 µM (HIPK3(h)) was 95%. The “percentage of enzyme activity that remains” value (EphA5(h)) was 57%, the remaining activity at 0.2 µM (PAK4(h)) was 85% and the remaining activity at 4 µM (PAK4(h)) was 75%.

Source: patent publication US20090105270A1, “Kinase inhibition and anticancer therapy” (priority 2007, published 2009)
